{"source": "patent US11566140B2", "about": "“Exterior coating composition” (Troy Corporation, priority 2019, dated 2023)", "origin": "cited, not measured here", "settings": "5 grams of pure BIT completely soluble in 100 ml of methanol"}
{"smiles": "O=c1[nH]sc2ccccc12", "note": "[BIT, 1,2-benzisothiazolin-3-one]", "values": [{"measurement": "solubility in methanol", "value": "greater than 5%"}]}
